From ChEMBL document CHEMBL1124908, “Synthesis and antiviral activity of 3'-deoxy-3'-C-hydroxymethyl nucleosides” (J Med Chem, 1990) come the findings set out here.

The subject of one assay is CV-1. The assay is described as follows: Inhibitory concentration which is active against Varicella zoster virus (VZV) in CV-1 cells. In kind it is functional, cell-based, Cercopithecidae. To be noted: Chlorocebus aethiops.
The next assay has as its system MRC5. The assay can be described thus: Inhibitory concentration which is active against Varicella zoster virus (VZV) in MRC-5 cells. To be noted: Homo sapiens. In kind it is functional, cell-based.
A further assay deals with Human alphaherpesvirus 1. The assay can be described thus: Minimum inhibitory concentration which is active against herpes simplex virus type-1 (HSV-1); value ranges from 0.007-0.01 ug/mL. It is filed as functional.
Assay [1] relates to Human alphaherpesvirus 3. The assay is described as follows: Anti-viral activity which is required for the inhibition of VZV (Varicella zoster virus ). In kind it is functional, organism-based.
In assay [2] the test system is Human alphaherpesvirus 3. The assay is described as follows: Minimum inhibitory concentration which is active against Varicella zoster virus (VZV); value ranges from 0.0002-0.003 ug/mL. In kind it is functional.

In brackets after ≈: the same amount, converted by molar mass.

What is called IC50 is the concentration that gives 50% inhibition. A lower IC50 goes with greater potency in that assay. With `O=c1[nH]c(=O)n(C2O[C@H](CO)[C@H](CO)[C@H]2O)cc1/C=C/Br` (stereo not given in full), the IC50 in the assay with CV-1 worked out at 4400 ng/mL (≈ 12.1 µM); in the assay with MRC5, 15300 ng/mL (≈ 42.1 µM).

Consider `O=c1[nH]c(=O)n([C@H]2C[C@H](O)[C@@H](CO)O2)cc1/C=C/Br` [BRIVUDINE], for which the MIC in the assay on Human alphaherpesvirus 1 was found to be 7 ng/mL (≈ 0.021 µM); against Human alphaherpesvirus 3 [2], 0.2 ng/mL (≈ 0.0006 µM). In the assay on Human alphaherpesvirus 3 [1], the IC50 came to 2.4 ng/mL (≈ 0.0072 µM).
